Source: publication PMC9301721 (ACS Omega, 2022)

B1: 14-3-3εΔC (aa 1-232) (domain or fragment, human, UniProt P62258 1-232, looked up)
chain: MDDREDLVYQAKLAEQAERYDEMVESMKKVAGMDVELTVEERNLLSVAYKNVIGARRASWRIISSIEQKEENKGGEDKLKMIREYRQMVETELKLICCDILDVLDKHLIPAANTGESKVFYYKMKGDYHRYLAEFATGNDRKEAAENSLVAYKAASDIAMTELPPTHPIRLGLALNFSVFYYEILNSPDRACRLAKAAFDDAIAELDTLSEESYKDSTLIMQLLRDNLTLWT

Tests used:
[1] = tested on: 14-3-3ε and FOXO3a interaction; details: cells expressing the 9J10 probe; cited from earlier work
14-3-3ε = details: pull-down and mass spectrometry; cited from earlier work
crystal structure = target: the molecule itself; test: crystal structure

Row | Molecule | Interaction between 14-3-3ε and FOXO3a in cells expressing the probe [1] | 14-3-3 proteins interacting with probe (pull-down, MS) (14-3-3ε) | binding result (crystal structure)
1 | LNTRPGRRRNpSN [9J10] | sharp reduction in the interaction between 14-3-3ε and FOXO3a | 14-3-3ε is one among the abundant 14-3-3 proteins interacting with 9J10 | 
2 | B1 |  |  | binds
